# Tests used:
# CBP bromodomain = molecular target: T1, CBP bromodomain (Homo sapiens, UniProt Q92793); assay: AlphaScreen in vitro binding assay with CBP; settings: for IC50: AlphaScreen, isolated CBP bromodomain, means of at least two determinations; for Selectivity Value [BRD4(1) IC50 (μM)/CBP IC50 (μM)]: ratio BRD4(1) IC50 / CBP IC50
# T1 construct: docked complex of Compound 21 with CBP bromodomain
# Experimental: (§1) To determine the binding selectivity of compounds provided, AlphaScreen in vitro binding assays were performed with either CBP or BRD4.
# (§2) Assays were performed with minor modifications from the manufacturer's protocol (Perkin Elmer, USA). All reagents were diluted in AlphaScreen™ buffer (50 mM HEPES, 150 mM NaCl, 0.01% v/v Tween-20, 0.1% w/v BSA, pH 7.4). After addition of Alpha beads to master solutions, all subsequent steps were performed under low light conditions. A 2× solution of components with final concentrations of His-BRD4(1) at 20 nM or His-CBP at 50 nM, Ni-coated Acceptor bead at 10 μg/ml, and biotinylated-JQ1 at 10 nM or biotinylated peptide at 100 nM was added in 10 μL to 384-well plates (AlphaPlate-384, PerkinElmer) using an EL406 liquid handler (Biotek, USA). Plates were spun down at 1000 rpm. A 10-point 1: √{square root over (sqrt(10))} serial dilution of compounds in DMSO was prepared at 200× the final concentration. 100 nL of compound from these stock plates were added by pin transfer using a Janus Workstation (PerkinElmer). A 2× solution of streptavidin-coated donor beads with a final concentration of 10 μg/ml was added in a 10 μL volume. The plates were spun down again at 1000 rpm and sealed with foil to prevent light exposure and evaporation. The plates were then incubated at room temperature for 1 hour and read on an Envision 2104 (PerkinElmer) using the manufacturer's protocol. IC50 values were calculated using a 4-parameter logistic curve in Prism 6 (GraphPad Software, USA) after normalization to DMSO-treated negative control wells.
# BRD4(1) bromodomain = molecular target: T2, BRD4(1) bromodomain (Homo sapiens, UniProt O60885); assay: AlphaScreen in vitro binding assay with BRD4; settings: isolated BRD4 bromodomain, means of at least two determinations
# T2 construct: final concentrations of His-BRD4(1) at 20 nM
# Experimental: as §1
# as §2, with “A 2× solution of components with final concentrations of His-BRD4(1) at 20 nM or His-CBP at 50 nM, Ni-coated Acceptor bead at 10 μg/ml, and biotinylated-JQ1 at 10 nM or biotinylated peptide at 100 nM was added in 10 μL to 384-well plates (AlphaPlate-384, PerkinElmer) using an EL406 liquid handler (Biotek, USA).” left out
# T1 sequence (Q92793 1085-1192 limits assumed): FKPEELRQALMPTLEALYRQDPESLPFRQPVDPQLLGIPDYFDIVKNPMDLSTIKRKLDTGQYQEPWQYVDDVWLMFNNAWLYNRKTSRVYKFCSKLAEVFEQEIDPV
IC50 (CBP bromodomain) [µM],Selectivity Value [BRD4(1) IC50 (μM)/CBP IC50 (μM)] (CBP bromodomain),IC50 (BRD4(1) bromodomain) [µM],Compound
0.159,41,6.59,"COc1ccc(CCc2nc3cc(-c4c(C)noc4C)ccn3c2NC2CCCCC2)cc1 [Compound 18, N-cyclohexyl-7-(3,5-dimethylisoxazol-4-yl)-2-(4-methoxyphenethyl)imidazo[1,2-a]pyridin-3-amine]"
0.296,34,10.1,"COc1ccc(CCc2nc3cc(-c4c(C)noc4C)ccn3c2NC(C)C)cc1 [Compound 19, 7-(3,5-dimethylisoxazol-4-yl)-N-isopropyl-2-(4-methoxyphenethyl)imidazo[1,2-a]pyridin-3-amine]"
0.737,11,8.18,Cc1noc(C)c1-c1ccn2c(NC3CCCCC3)c(CCc3ccc(OC(C)C)cc3)nc2c1 [Compound 36]
